{"source": "patent US20080166403A1", "about": "“Long circulating liposome” (Industrial Technology Research Institute, priority 2003, published 2008)", "assay": "Circulation time of liposomes in the body: Doxorubicin concentration in rat blood by a pharmacokinetics method with HPLC analysis", "assay_type": "in vivo", "details": "8 hours after injection, FIG. 1", "protocol": "In this example, the concentration of Doxorubicin in the blood is determined by a pharmacokinetics method, and HPLC analysis is performed subsequently.\nDoxo. is compared with DO503 liposomes (Example 1) and DO502 liposomes (Example 2), wherein Doxo. represents the free doxorubicin solution. […] Especially for DO503, it even exists in rat blood 48 hours after injection.", "data": [{"compound": "COc1cccc2c1C(=O)c1c(O)c3c(c(O)c1C2=O)C[C@@](O)(C(=O)CO)C[C@@H]3O[C@H]1C[C@H](N)[C@H](O)[C@H](C)O1", "note": "[Doxo., doxorubicin]", "values": [{"measurement": "Doxorubicin concentration in rat blood", "value": "almost no Doxorubicin concentration detected"}]}]}
